Measurements reported in US20230382924A1, “MODULATORS OF CYSTIC FIBROSIS TRANSMEMBRANE CONDUCTANCE REGULATOR” (VERTEX PHARMACEUTICALS INCORPORATED, priority 2020, published 2023).
Like-named read-outs stand apart in the source and are kept apart here.

Molecular target: CFTR (Homo sapiens, UniProt P13569)
Experiment: Membrane Potential Dye, Enteroid Assay A
Type: cell-based
Conditions: for EC50: read-out: Ent. A EC50
Procedure: Base medium (ADF+++) consisted of Advanced DMEM/Ham's F12, 2 mM Glutamax, 10 mM HEPES, […] penicillin/streptomycin.
Bath 1 Buffer consisted of 1 mM MgCl2, 160 mM NaCl, 4.5 mM KCl, 10 mM HEPES, 10 mM Glucose, 2 mM CaCl2).
Chloride Free Buffer consisted of 1 mM Magnesium Gluconate, 2 mM Calcium Gluconate, 4.5 mM Potassium Gluconate, 160 mM Sodium Gluconate, 10 mM HEPES, 10 mM Glucose.
Bath 1 Dye Solution consisted of Bath 1 Buffer, 0.04% Pluronic F127, 20 μM Methyl Oxonol, 30 μM CaCCinh-A01, 30 μM Chicago Sky Blue.
Chloride Free Dye Solution consisted of Chloride Free Buffer, 0.04% Pluronic F127, 20 μM Methyl Oxonol, 30 μM CaCCinh-A01, 30 μM Chicago Sky Blue.
3. Enteroid Cell Harvesting and Seeding
Cells were recovered in cell recovery solution, collected by centrifugation at 650 rpm for 5 min at 4° C., resuspended in TryPLE and incubated for 5 min at 37° C. Cells were then collected by centrifugation at 650 rpm for 5 min at 4° C. and resuspended in IEMM containing 10 μM ROCK inhibitor (RI).
4. Membrane Potential Dye, Enteroid Assay A
Briefly, cells were washed 5 times in Bath 1 Buffer. Bath 1 Dye Solution was added, and the cells were incubated for 25 min at room temperature. Following dye incubation, cells were washed 3 times in Chloride Free Dye Solution. Chloride transport was initiated by addition of Chloride Free Dye Stimulation Solution and the fluorescence signal was read for 15 min. […] Chloride transport was then expressed as a percentage of the chloride transport following treatment with 3 μM N-[(6-amino-2-pyridyl)sulfonyl]-6-(3-fluoro-5-isobutoxy-phenyl)-2-[(4S)-2,2,4-trimethylpyrrolidin-1-yl]pyridine-3-carboxamide, 3 μM (R)-1-(2,2-difluorobenzo[d][1,3]dioxol-5-yl)-N-(1-(2,3-dihydroxypropyl)-6-fluoro-2-(1-hydroxy-2-methylpropan-2-yl)-1H-indol-5-yl)cyclopropanecarboxamide and 300 nM acute N-[2,4-bis(1,1-dimethylethyl)-5-hydroxyphenyl]-1,4-dihydro-4-oxoquinoline-3-carboxamide triple combination control (% Activity).

Sequence of CFTR (P13569 with tags, fused parts or gaps DEL508-508): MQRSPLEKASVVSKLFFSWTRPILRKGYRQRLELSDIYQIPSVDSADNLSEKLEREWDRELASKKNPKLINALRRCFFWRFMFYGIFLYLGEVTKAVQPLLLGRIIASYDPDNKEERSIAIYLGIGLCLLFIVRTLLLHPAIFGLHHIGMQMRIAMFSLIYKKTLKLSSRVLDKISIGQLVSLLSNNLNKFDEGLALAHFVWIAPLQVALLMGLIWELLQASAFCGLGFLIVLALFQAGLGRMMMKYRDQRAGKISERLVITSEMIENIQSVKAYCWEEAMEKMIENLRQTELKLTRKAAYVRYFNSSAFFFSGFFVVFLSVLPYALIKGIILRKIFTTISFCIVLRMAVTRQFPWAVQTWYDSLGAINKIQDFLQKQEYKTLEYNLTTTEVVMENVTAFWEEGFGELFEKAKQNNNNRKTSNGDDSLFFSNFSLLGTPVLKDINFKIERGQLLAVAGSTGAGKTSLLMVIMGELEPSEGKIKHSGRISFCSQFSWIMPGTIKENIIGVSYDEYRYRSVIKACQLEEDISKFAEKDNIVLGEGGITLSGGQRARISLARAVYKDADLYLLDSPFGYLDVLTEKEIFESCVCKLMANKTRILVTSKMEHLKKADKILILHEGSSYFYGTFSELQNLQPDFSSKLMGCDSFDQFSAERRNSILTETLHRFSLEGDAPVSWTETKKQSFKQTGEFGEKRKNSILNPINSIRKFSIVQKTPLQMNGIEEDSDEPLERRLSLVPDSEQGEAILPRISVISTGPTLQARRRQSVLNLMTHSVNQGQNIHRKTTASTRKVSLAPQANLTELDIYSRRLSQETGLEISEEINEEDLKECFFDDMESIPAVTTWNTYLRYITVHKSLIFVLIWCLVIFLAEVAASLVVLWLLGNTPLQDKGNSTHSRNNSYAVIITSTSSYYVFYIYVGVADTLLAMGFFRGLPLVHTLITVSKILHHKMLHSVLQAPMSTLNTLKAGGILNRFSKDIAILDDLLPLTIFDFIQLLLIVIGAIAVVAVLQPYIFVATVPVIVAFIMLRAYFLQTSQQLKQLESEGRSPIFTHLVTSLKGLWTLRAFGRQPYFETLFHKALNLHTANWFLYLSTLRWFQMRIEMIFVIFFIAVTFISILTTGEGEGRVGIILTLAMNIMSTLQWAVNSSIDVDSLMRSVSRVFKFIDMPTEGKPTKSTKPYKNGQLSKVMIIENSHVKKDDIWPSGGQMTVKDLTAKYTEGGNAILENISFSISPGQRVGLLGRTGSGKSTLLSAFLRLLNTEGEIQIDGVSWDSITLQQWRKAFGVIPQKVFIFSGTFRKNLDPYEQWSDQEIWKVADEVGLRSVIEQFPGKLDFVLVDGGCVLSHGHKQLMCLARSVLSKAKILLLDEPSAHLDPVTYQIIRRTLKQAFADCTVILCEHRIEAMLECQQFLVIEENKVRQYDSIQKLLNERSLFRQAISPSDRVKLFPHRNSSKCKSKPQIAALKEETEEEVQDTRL

## Cc1cccc(C)c1-c1cc2nc(n1)NS(=O)(=O)c1cccc(c1)C(=O)NCC(c1cccc(C(C)(C)C)c1)O2 (stereo not drawn) [Compound 247]
Table 8
  Ent. A Max Activity: +++ (+++ is >60%)
  EC50: < 1 µM

## CC(C)C[C@@H]1COc2cc(-n3ccc(OCCC4(C(F)(F)F)CC4)n3)nc(n2)NS(=O)(=O)c2cccc(c2)C(=O)N1 [Compound 306]
Table 8
  Ent. A Max Activity: + (+ is <30%)

## CC(C)C[C@@H]1COc2cc(C3=CC(C)CC3(C)C)nc(n2)NS(=O)(=O)c2cccc(c2)C(=O)N1 (stereo partly drawn) [Compound 320]
Enteroid Assay A
  Ent. A Max Activity: ++ (++ is 30-60%)
  EC50: < 1 µM

## CC(C)CCc1ccccc1-c1cc2nc(n1)NS(=O)(=O)c1cccc(c1)C(=O)N[C@H](CC(C)C)CO2 [Compound 104, (11R)-6-[2-(3-Methylbutyl)phenyl]-11-(2-methylpropyl)-9-oxa-2λ^6-thia-3,5,12,19-tetraazatricyclo[12.3.1.14,8]nonadeca-1(17),4,6,8(19),14(18),15-hexaene-2,2,13-trione]
Enteroid Assay A
  Ent. A Max Activity: ++ (++ is 30-60%)
  EC50: < 1 µM

## Cc1cccc(C)c1-c1cc2nc(n1)NS(=O)(=O)c1cccc(c1)C(=O)NC[C@@H](c1ccc(C(C)(C)C)cn1)O2 (single isomer, unassigned) [Compound 8, 10-(5-tert-butyl-2-pyridyl)-6-(2,6-dimethylphenyl)-2,2-dioxo-9-oxa-2λ^6-thia-3,5,12,19-tetrazatricyclo[12.3.1.14,8]nonadeca-1(18),4(19),5,7,14,16-hexaen-13-one]
Table 8
  Ent. A Max Activity: + (+ is <30%)

## CCCC1(CCC)COc2cc(-c3c(C)cccc3C)nc(n2)NS(=O)(=O)c2cccc(c2)C(=O)N1 [Compound 184]
Table 9
  Ent. A Max Activity: +++ (+++ is >60%)
  EC50: < 1 µM

## Cc1cccc(C)c1-c1cc2nc(n1)NS(=O)(=O)c1cccc(c1)C(=O)NCC(c1ccc(C(F)(F)F)cc1)O2 (stereo not drawn) [Compound 403]
Table 8
  EC50: < 1 µM

## Cc1cccc(C)c1-c1cc2nc(n1)NS(=O)(=O)c1cccc(c1)C(=O)NCC(c1ccc(C3CCC3)cc1)O2 (single isomer, unassigned) [Compound 14, 10-(4-cyclobutylphenyl)-6-(2,6-dimethylphenyl)-2,2-dioxo-9-oxa-2λ^6-thia-3,5,12,19-tetrazatricyclo[12.3.1.14,8]nonadeca-1(18),4(19),5,7,14,16-hexaen-13-one]
Table 9
  Ent. A Max Activity: +++ (+++ is >60%)
  EC50: < 1 µM

## Cc1cccc(C)c1-c1cc2nc(n1)NS(=O)(=O)c1cccc(c1)C(=O)NCC(c1ccc(Br)cc1)O2 (single isomer, unassigned) [Compound 19, 10-(4-bromophenyl)-6-(2,6-dimethylphenyl)-2,2-dioxo-9-oxa-2λ^6-thia-3,5,12,19-tetrazatricyclo[12.3.1.14,8]nonadeca-1(18),4(19),5,7,14,16-hexaen-13-one]
Table 8
  Ent. A Max Activity: + (+ is <30%)

## Cc1cccc(C)c1-c1cc2nc(n1)NS(=O)(=O)c1cccc(c1)C(=O)NCC(c1ccc(C3(C)CC3)cc1)O2 (stereo not drawn) [Compound 265]
Table 9
  Ent. A Max Activity: ++ (++ is 30-60%)
  EC50: < 1 µM

## Cc1cccc(C)c1-c1cc2nc(n1)NS(=O)(=O)c1cccc(c1)C(=O)N[C@@H](C(CC(C)C)c1ccccc1)CO2 (stereo in doubt) [Compound 182]
Table 9
  Ent. A Max Activity: ++ (++ is 30-60%)
  EC50: < 1 µM

## Cc1cccc(C)c1-c1cc2nc(n1)NS(=O)(=O)c1cccc(c1)C(=O)NC[C@@H](c1ccc(C3CC3)cc1)O2 [Compound 261]
Table 9
  Ent. A Max Activity: ++ (++ is 30-60%)
  EC50: 1 to 3 µM

## Cc1cccc(C)c1-c1cc2nc(n1)NS(=O)(=O)c1cccc(c1)C(=O)NC[C@@H](c1ccc(C3CC3)cc1)O2 [Compound 260]
Table 9
  Ent. A Max Activity: +++ (+++ is >60%)
  EC50: < 1 µM

## Cc1cccc(C)c1-c1cc2nc(n1)NS(=O)(=O)c1cccc(c1)C(=O)NC(C)(CC(C)C)CO2 (stereo not drawn) [Compound 176]
Table 9
  Ent. A Max Activity: +++ (+++ is >60%)
  EC50: < 1 µM

## Cc1cccc(C)c1-c1cc2nc(n1)NS(=O)(=O)c1cccc(c1)C(=O)NCC1(CCN(C(=O)C3(c4ccc5c(c4)CCC5)CC3)CC1)CO2 [Compound 464]
Enteroid Assay A
  Ent. A Max Activity: +++ (+++ is >600%)
  EC50: 1 to 3 µM

## CCC(CC)(CC)c1ccc(C2CNC(=O)c3cccc(c3)S(=O)(=O)Nc3nc(cc(-c4c(C)cccc4C)n3)O2)cc1 (stereo not drawn) [Compound 266]
Table 9
  Ent. A Max Activity: ++ (++ is 30-60%)
  EC50: < 1 µM

## Cc1cccc(C)c1-c1cc2nc(n1)NS(=O)(=O)c1cccc(c1)C(=O)N[C@H](C)[C@H](c1ccc(C(C)(C)C)cc1)O2 [Compound 134]
Table 8
  Ent. A Max Activity: + (+ is <30%)
  EC50: < 1 µM

## CC(C)C[C@@H]1COc2cc(C3CCCCC3(C)C)nc(n2)NS(=O)(=O)c2cccc(c2)C(=O)N1 (stereo partly drawn) [Compound 68, (11R)-6-(2,2-Dimethylcyclohexyl)-11-isobutyl-2,2-dioxo-9-oxa-2λ^6-thia-3,5,12,19-tetrazatricyclo[12.3.1.14,8]nonadeca-1(18),4,6,8(19),14,16-hexaen-13-one]
Table 9
  Ent. A Max Activity: +++ (+++ is >60%)
  EC50: 1 to 3 µM

## CC(C)C[C@@H]1COc2cc(-c3ccccc3CC(C)(C)C)nc(n2)NS(=O)(=O)c2cccc(c2)C(=O)N1 [Compound 332]
Enteroid Assay A
  Ent. A Max Activity: ++ (++ is 30-60%)
  EC50: < 1 µM

## Cc1cccc(C)c1-c1cc2nc(n1)NS(=O)(=O)c1cccc(c1)C(=O)N[C@@H]1CCN(C(=O)OC(C)(C)C)C[C@H]1O2 (single isomer, unassigned) [Compound 88, tert-Butyl 20-(2,6-dimethylphenyl)-10,16,16-trioxo-2-oxa-16λ^6-thia-5,9,17,19,22-pentaazatetracyclo[16.3.1.111,15.03,8]tricosa-1(21),11(23),12,14,18(22),19-hexaene-5-carboxylate]
Table 9
  Ent. A Max Activity: + (+ is <30%)

## Cc1cccc(C)c1-c1cc2nc(n1)NS(=O)(=O)c1cccc(c1)C(=O)NCC(c1ccccc1C(C)(C)C)O2 (stereo not drawn) [Compound 278]
Table 8
  EC50: < 1 µM

## Cc1cccc(C)c1-c1cc2nc(n1)NS(=O)(=O)c1cccc(c1)C(=O)NCC(c1ccccc1)CO2 (stereo not drawn) [Compound 201]
Enteroid Assay A
  EC50: < 1 µM

## Cc1cccc(C)c1-c1cc2nc(n1)NS(=O)(=O)c1cccc(c1)CN[C@H](CC(C)C)CO2 [Compound 240]
Table 9
  Ent. A Max Activity: ++ (++ is 30-60%)
  EC50: 3 to 30 µM

## Cc1cccc(C)c1-c1cc2nc(n1)NS(=O)(=O)c1cccc(c1)C(=O)NCC1(CCN(CC3CCCCC3)CC1)CO2 [Compound 85, 1′-(Cyclohexylmethyl)-6-(2,6-dimethylphenyl)-2,2-dioxo-spiro[9-oxa-2λ^6-thia-3,5,13,20-tetrazatricyclo[13.3.1.14,8]icosa-1(19),4(20),5,7,15,17-hexaene-11,4′-piperidine]-14-one]
Enteroid Assay A
  Ent. A Max Activity: ++ (++ is 30-60%)
  EC50: 3 to 30 µM

## Cc1cccc(C)c1-c1cc2nc(n1)NS(=O)(=O)c1cccc(c1)C(=O)NCC1(CCN(CCc3ccccc3)CC1)CO2 [Compound 444]
Enteroid Assay A
  Ent. A Max Activity: ++ (++ is 30-60%)
  EC50: 3 to 30 µM

## Cc1cccc(C)c1-c1cc2nc(n1)NS(=O)(=O)c1cccc(c1)C(=O)NCC(c1ccc(CC3(C(F)(F)F)CC3)cc1)O2 (stereo not drawn) [Compound 147]
Table 9
  Ent. A Max Activity: +++ (+++ is >60%)
  EC50: < 1 µM

## Cc1cccc(C)c1-c1cc2nc(n1)NS(=O)(=O)c1cccc(c1)C(=O)NCC1(CCN(CCC(C)(C)C)CC1)CO2 [Compound 443]
Enteroid Assay A
  Ent. A Max Activity: ++ (++ is 30-60%)

## Cc1cccc(C)c1-c1cc2nc(n1)NS(=O)(=O)c1cccc(c1)C(=O)NCC(C1CCCCC1)O2 (stereo not drawn) [Compound 281]
Table 8
  Ent. A Max Activity: +++ (+++ is >60%)
  EC50: < 1 µM

## CC(C)C[C@@H]1COc2cc(-c3ccccc3)nc(n2)NS(=O)(=O)c2cccc(c2)C(=O)N1 [Compound 340]
Enteroid Assay A
  Ent. A Max Activity: ++ (++ is 30-60%)
  EC50: 3 to 30 µM

## Cc1cccc(C)c1-c1cc2nc(n1)NS(=O)(=O)c1cccc(c1)C(=O)NC[C@H](c1ccc(C(F)(F)F)cc1)O2 (stereo in doubt) [Compound 402]
Table 8
  Ent. A Max Activity: + (+ is <30%)
  EC50: 3 to 30 µM

## Cc1cccc(C)c1-c1cc2nc(n1)NS(=O)(=O)c1cccc(c1)C(=O)NCC(c1ccc3c(c1)OCCO3)O2 (stereo not drawn) [Compound 116]
Table 8
  Ent. A Max Activity: +++ (+++ is >60%)
  EC50: < 1 µM

## Cc1cccc(C)c1-c1cc2nc(n1)NS(=O)(=O)c1cccc(c1)C(=O)N[C@@H](CC(C)(C)C)[C@H](C)O2 [Compound 130]
Table 9
  Ent. A Max Activity: +++ (+++ is >60%)
  EC50: < 1 µM

## Cc1cccc(CO)c1-c1cc2nc(n1)NS(=O)(=O)c1cccc(c1)C(=O)N[C@H](CC(C)C)CO2 [Compound 395]
Table 9
  Ent. A Max Activity: ++ (++ is 30-60%)
  EC50: 3 to 30 µM

## Cc1cccc(C)c1-c1cc2nc(n1)NS(=O)(=O)c1cccc(c1)C(=O)NC(CCC1CCOCC1)CO2 (stereo not drawn) [Compound 186]
Table 8
  Ent. A Max Activity: +++ (+++ is >60%)
  EC50: 3 to 30 µM
